Source: the NIST ThermoML archive (doi:10.1016/j.fluid.2015.03.016)
Values joined by “and” are separate entries in the source; they are usually repeats but may differ in a detail not shown here. Equal entries are not always repeated.

Conditions: Liquid

CCCCOC(=O)CCCCC(=O)OCCCC [dibutyl hexanedioate]
Conditions	viscosity
303.14 K, 1250 kPa, Vibrating wire viscometry	4.201 mPa·s
303.14 K, 1280 kPa, Vibrating wire viscometry	4.21 mPa·s
303.14 K, 2750 kPa, Vibrating wire viscometry	4.305 mPa·s
303.14 K, 2760 kPa, Vibrating wire viscometry	4.313 mPa·s
303.14 K, 2770 kPa, Vibrating wire viscometry	4.312 mPa·s
303.14 K, 5400 kPa, Vibrating wire viscometry	4.417 mPa·s
303.14 K, 5420 kPa, Vibrating wire viscometry	4.417 mPa·s and 4.419 mPa·s and 4.413 mPa·s
303.14 K, 7530 kPa, Vibrating wire viscometry	4.511 mPa·s
303.14 K, 7570 kPa, Vibrating wire viscometry	4.513 mPa·s
303.14 K, 7660 kPa, Vibrating wire viscometry	4.532 mPa·s
303.14 K, 10500 kPa, Vibrating wire viscometry	4.68 mPa·s
303.14 K, 10520 kPa, Vibrating wire viscometry	4.686 mPa·s
303.14 K, 10570 kPa, Vibrating wire viscometry	4.683 mPa·s
303.14 K, 20260 kPa, Vibrating wire viscometry	5.251 mPa·s
303.14 K, 20300 kPa, Vibrating wire viscometry	5.25 mPa·s
303.14 K, 20320 kPa, Vibrating wire viscometry	5.249 mPa·s
303.14 K, 65590 kPa, Vibrating wire viscometry	8.312 mPa·s
303.15 K, 1220 kPa, Vibrating wire viscometry	4.205 mPa·s
303.15 K, 1280 kPa, Vibrating wire viscometry	4.208 mPa·s
303.15 K, 1290 kPa, Vibrating wire viscometry	4.21 mPa·s
303.15 K, 1300 kPa, Vibrating wire viscometry	4.211 mPa·s
303.15 K, 2770 kPa, Vibrating wire viscometry	4.312 mPa·s
303.15 K, 5420 kPa, Vibrating wire viscometry	4.415 mPa·s and 4.419 mPa·s
303.15 K, 7660 kPa, Vibrating wire viscometry	4.531 mPa·s and 4.537 mPa·s
303.15 K, 7680 kPa, Vibrating wire viscometry	4.531 mPa·s and 4.533 mPa·s and 4.537 mPa·s
303.15 K, 7730 kPa, Vibrating wire viscometry	4.518 mPa·s
303.15 K, 10560 kPa, Vibrating wire viscometry	4.689 mPa·s
303.15 K, 15380 kPa, Vibrating wire viscometry	4.954 mPa·s
303.15 K, 15390 kPa, Vibrating wire viscometry	4.955 mPa·s and 4.963 mPa·s and 4.951 mPa·s
303.15 K, 30100 kPa, Vibrating wire viscometry	5.839 mPa·s
303.15 K, 30180 kPa, Vibrating wire viscometry	5.821 mPa·s
303.15 K, 30250 kPa, Vibrating wire viscometry	5.828 mPa·s
303.15 K, 30290 kPa, Vibrating wire viscometry	5.827 mPa·s
303.15 K, 30330 kPa, Vibrating wire viscometry	5.817 mPa·s
303.15 K, 30380 kPa, Vibrating wire viscometry	5.827 mPa·s
303.15 K, 39970 kPa, Vibrating wire viscometry	6.452 mPa·s
303.15 K, 40060 kPa, Vibrating wire viscometry	6.443 mPa·s
303.15 K, 40100 kPa, Vibrating wire viscometry	6.443 mPa·s
303.15 K, 40150 kPa, Vibrating wire viscometry	6.446 mPa·s
303.15 K, 49790 kPa, Vibrating wire viscometry	7.073 mPa·s
303.15 K, 49810 kPa, Vibrating wire viscometry	7.073 mPa·s
303.15 K, 49830 kPa, Vibrating wire viscometry	7.07 mPa·s
303.15 K, 49880 kPa, Vibrating wire viscometry	7.058 mPa·s
303.15 K, 65340 kPa, Vibrating wire viscometry	8.283 mPa·s
303.15 K, 65490 kPa, Vibrating wire viscometry	8.277 mPa·s
313.14 K, 1070 kPa, Vibrating wire viscometry	3.362 mPa·s
313.14 K, 1090 kPa, Vibrating wire viscometry	3.364 mPa·s
313.14 K, 1110 kPa, Vibrating wire viscometry	3.371 mPa·s
313.14 K, 1160 kPa, Vibrating wire viscometry	3.369 mPa·s
313.14 K, 2580 kPa, Vibrating wire viscometry	3.416 mPa·s
313.14 K, 2590 kPa, Vibrating wire viscometry	3.412 mPa·s and 3.414 mPa·s
313.14 K, 2600 kPa, Vibrating wire viscometry	3.415 mPa·s
313.14 K, 2610 kPa, Vibrating wire viscometry	3.416 mPa·s
313.14 K, 5050 kPa, Vibrating wire viscometry	3.518 mPa·s
313.14 K, 5060 kPa, Vibrating wire viscometry	3.518 mPa·s
313.14 K, 7630 kPa, Vibrating wire viscometry	3.595 mPa·s
313.14 K, 10470 kPa, Vibrating wire viscometry	3.713 mPa·s
313.14 K, 15150 kPa, Vibrating wire viscometry	3.89 mPa·s and 3.889 mPa·s
313.14 K, 15210 kPa, Vibrating wire viscometry	3.888 mPa·s
313.14 K, 20300 kPa, Vibrating wire viscometry	4.123 mPa·s
313.14 K, 20430 kPa, Vibrating wire viscometry	4.12 mPa·s
313.14 K, 20440 kPa, Vibrating wire viscometry	4.123 mPa·s
313.14 K, 30160 kPa, Vibrating wire viscometry	4.553 mPa·s
313.14 K, 30180 kPa, Vibrating wire viscometry	4.556 mPa·s and 4.554 mPa·s
313.14 K, 30190 kPa, Vibrating wire viscometry	4.556 mPa·s
313.14 K, 40210 kPa, Vibrating wire viscometry	5.026 mPa·s
313.14 K, 40270 kPa, Vibrating wire viscometry	5.022 mPa·s
313.14 K, 40290 kPa, Vibrating wire viscometry	5.03 mPa·s
313.14 K, 40330 kPa, Vibrating wire viscometry	5.028 mPa·s
313.14 K, 50580 kPa, Vibrating wire viscometry	5.596 mPa·s
313.14 K, 50590 kPa, Vibrating wire viscometry	5.598 mPa·s
313.14 K, 50610 kPa, Vibrating wire viscometry	5.595 mPa·s and 5.596 mPa·s and 5.591 mPa·s
313.14 K, 50640 kPa, Vibrating wire viscometry	5.591 mPa·s
313.14 K, 65090 kPa, Vibrating wire viscometry	6.358 mPa·s
313.14 K, 65110 kPa, Vibrating wire viscometry	6.365 mPa·s
313.15 K, 5050 kPa, Vibrating wire viscometry	3.522 mPa·s and 3.516 mPa·s
313.15 K, 5310 kPa, Vibrating wire viscometry	3.531 mPa·s
313.15 K, 5320 kPa, Vibrating wire viscometry	3.531 mPa·s
313.15 K, 5340 kPa, Vibrating wire viscometry	3.529 mPa·s
313.15 K, 5350 kPa, Vibrating wire viscometry	3.534 mPa·s
313.15 K, 5370 kPa, Vibrating wire viscometry	3.531 mPa·s
313.15 K, 5380 kPa, Vibrating wire viscometry	3.532 mPa·s
313.15 K, 7570 kPa, Vibrating wire viscometry	3.59 mPa·s
313.15 K, 7580 kPa, Vibrating wire viscometry	3.595 mPa·s
313.15 K, 7610 kPa, Vibrating wire viscometry	3.598 mPa·s
313.15 K, 10450 kPa, Vibrating wire viscometry	3.717 mPa·s
313.15 K, 10470 kPa, Vibrating wire viscometry	3.712 mPa·s
313.15 K, 10500 kPa, Vibrating wire viscometry	3.714 mPa·s
313.15 K, 15160 kPa, Vibrating wire viscometry	3.887 mPa·s and 3.889 mPa·s
313.15 K, 15180 kPa, Vibrating wire viscometry	3.891 mPa·s
313.15 K, 20420 kPa, Vibrating wire viscometry	4.122 mPa·s
313.15 K, 30150 kPa, Vibrating wire viscometry	4.56 mPa·s
313.15 K, 30200 kPa, Vibrating wire viscometry	4.555 mPa·s
323.11 K, 101.33 kPa, Capillary tube (Ostwald / Ubbelohde) method	2.704 mPa·s
323.14 K, 1140 kPa, Vibrating wire viscometry	2.727 mPa·s and 2.723 mPa·s
323.14 K, 5040 kPa, Vibrating wire viscometry	2.856 mPa·s
323.14 K, 10170 kPa, Vibrating wire viscometry	3.018 mPa·s
323.14 K, 30230 kPa, Vibrating wire viscometry	3.694 mPa·s and 3.693 mPa·s
323.14 K, 39990 kPa, Vibrating wire viscometry	4.08 mPa·s
323.14 K, 40050 kPa, Vibrating wire viscometry	4.079 mPa·s
323.15 K, 1130 kPa, Vibrating wire viscometry	2.728 mPa·s and 2.722 mPa·s
323.15 K, 2630 kPa, Vibrating wire viscometry	2.775 mPa·s
323.15 K, 2640 kPa, Vibrating wire viscometry	2.778 mPa·s
323.15 K, 2650 kPa, Vibrating wire viscometry	2.776 mPa·s and 2.775 mPa·s
323.15 K, 5040 kPa, Vibrating wire viscometry	2.856 mPa·s
323.15 K, 5070 kPa, Vibrating wire viscometry	2.86 mPa·s
323.15 K, 5100 kPa, Vibrating wire viscometry	2.863 mPa·s
323.15 K, 5170 kPa, Vibrating wire viscometry	2.846 mPa·s
323.15 K, 5180 kPa, Vibrating wire viscometry	2.841 mPa·s
323.15 K, 5190 kPa, Vibrating wire viscometry	2.843 mPa·s
323.15 K, 7740 kPa, Vibrating wire viscometry	2.926 mPa·s and 2.931 mPa·s
323.15 K, 7750 kPa, Vibrating wire viscometry	2.924 mPa·s
323.15 K, 7760 kPa, Vibrating wire viscometry	2.926 mPa·s and 2.931 mPa·s
323.15 K, 10130 kPa, Vibrating wire viscometry	3.018 mPa·s
323.15 K, 10140 kPa, Vibrating wire viscometry	3.02 mPa·s
323.15 K, 10150 kPa, Vibrating wire viscometry	3.02 mPa·s and 3.016 mPa·s
323.15 K, 15220 kPa, Vibrating wire viscometry	3.172 mPa·s and 3.173 mPa·s and 3.174 mPa·s
323.15 K, 15230 kPa, Vibrating wire viscometry	3.175 mPa·s and 3.171 mPa·s
323.15 K, 20200 kPa, Vibrating wire viscometry	3.331 mPa·s
323.15 K, 20230 kPa, Vibrating wire viscometry	3.327 mPa·s and 3.335 mPa·s
323.15 K, 20250 kPa, Vibrating wire viscometry	3.33 mPa·s
323.15 K, 20270 kPa, Vibrating wire viscometry	3.334 mPa·s
323.15 K, 30190 kPa, Vibrating wire viscometry	3.693 mPa·s
323.15 K, 30220 kPa, Vibrating wire viscometry	3.689 mPa·s
323.15 K, 40130 kPa, Vibrating wire viscometry	4.073 mPa·s
323.15 K, 40140 kPa, Vibrating wire viscometry	4.077 mPa·s
323.15 K, 50030 kPa, Vibrating wire viscometry	4.456 mPa·s
323.15 K, 50050 kPa, Vibrating wire viscometry	4.45 mPa·s
323.15 K, 50060 kPa, Vibrating wire viscometry	4.457 mPa·s
323.16 K, 5190 kPa, Vibrating wire viscometry	2.849 mPa·s
323.16 K, 65110 kPa, Vibrating wire viscometry	5.126 mPa·s
323.16 K, 65190 kPa, Vibrating wire viscometry	5.123 mPa·s
323.16 K, 65230 kPa, Vibrating wire viscometry	5.125 mPa·s
323.16 K, 65310 kPa, Vibrating wire viscometry	5.119 mPa·s
333.03 K, 101.33 kPa, Capillary tube (Ostwald / Ubbelohde) method	2.25 mPa·s
333.15 K, 1000 kPa, Vibrating wire viscometry	2.27 mPa·s
333.15 K, 1020 kPa, Vibrating wire viscometry	2.27 mPa·s
333.15 K, 1170 kPa, Vibrating wire viscometry	2.269 mPa·s
333.15 K, 1200 kPa, Vibrating wire viscometry	2.268 mPa·s
333.15 K, 2530 kPa, Vibrating wire viscometry	2.296 mPa·s
333.15 K, 5030 kPa, Vibrating wire viscometry	2.367 mPa·s
333.15 K, 5050 kPa, Vibrating wire viscometry	2.362 mPa·s
333.15 K, 5070 kPa, Vibrating wire viscometry	2.365 mPa·s
